From patent US9000175B2, “Bicyclic GPR119 modulators” (Lupin Limited, priority 2010, dated 2015)

tested on: C57 BL/6J mice; experiment: Oral glucose tolerance test; type: in vivo; details: blood glucose delta AUC; male C57 BL/6J mice fasted 16 h; 10 mg/kg oral gavage 30 min before glucose bolus 3 g/kg; 20-120 min
Method: Oral Glucose Tolerance Test:
9-10 weeks old male C57 BL/6J mice were maintained on a regular chow diet. The day of the experiment mice were fasted for 16 h and then randomized in to groups (n=7-8) based on blood glucose and bodyweight to receive vehicle (80% PEG400, 10% Tween80, 10% Ethanol) or test compounds (at 10 mg/kg). Vehicle or test compounds were delivered via oral gavage at 10 ml/kg volume. Thirty minutes later, the mice were dosed orally with a glucose bolus (3 g/kg) at 10 ml/kg volume. Blood glucose measurements were taken at 20, 40, 60 and 120 minutes after glucose administration by glucometer (CONTOUR TS, Bayer). Total AUC and Delta AUC were calculated by using graph pad prism (5.0).

Q: `CCc1cnc(N2CCC(Oc3ccc(-n4ccc5cc(C(=O)NC)ccc54)nc3)CC2)nc1` [Example-63, 1-(5-((1-(5-Ethylpyrimidin-2-yl)piperidin-4-yl)oxy)pyridin-2-yl)-N-methyl-1H-indole-5-carboxamide] was tested. Which “% reduction in delta AUC at 10 mg/kg” value did it give?
A: 28%

Q: How did the “% reduction in delta AUC at 10 mg/kg” value turn out when `CCOC(=O)Nc1ccc2c(ccn2-c2ccc(OC3CCN(c4nc(CC)no4)CC3)cn2)c1` [Example-142, Ethyl(1-(5-((1-(3-ethyl-1,2,4-oxadiazol-5-yl)piperidin-4-yl)oxy)pyridin-2-yl)-1H-indol-5-yl)carbamate] was run?
A: 35%

same assay, conditions: blood glucose total AUC; male C57 BL/6J mice fasted 16 h; 10 mg/kg oral gavage 30 min before glucose bolus 3 g/kg; 20-120 min

Q: With `CCc1cnc(N2CCC(Oc3ccc(-n4ccc5cc(C(=O)NC)ccc54)nc3)CC2)nc1` [Example-63, 1-(5-((1-(5-Ethylpyrimidin-2-yl)piperidin-4-yl)oxy)pyridin-2-yl)-N-methyl-1H-indole-5-carboxamide] as the molecule, how does the “% reduction in total AUC at 10 mg/kg” value read?
A: 19%

Q: For `CCOC(=O)Nc1ccc2c(ccn2-c2ccc(OC3CCN(c4nc(CC)no4)CC3)cn2)c1` [Example-142, Ethyl(1-(5-((1-(3-ethyl-1,2,4-oxadiazol-5-yl)piperidin-4-yl)oxy)pyridin-2-yl)-1H-indol-5-yl)carbamate], which “% reduction in total AUC at 10 mg/kg” value is on record?
A: 20%

target: T1, human GPR119 (Homo sapiens, UniProt Q8TDV5); experiment: Cyclic AMP assay in stable cell line; type: cell-based; details: CHO-K1 cells stably transfected with human GPR119; cAMP levels (FRET, cAMP femto kit); 1 h at 37° C; read-out: EC50 Range
T1 construct: expressed in transfected cells
T1 sequence (Q8TDV5 1-335): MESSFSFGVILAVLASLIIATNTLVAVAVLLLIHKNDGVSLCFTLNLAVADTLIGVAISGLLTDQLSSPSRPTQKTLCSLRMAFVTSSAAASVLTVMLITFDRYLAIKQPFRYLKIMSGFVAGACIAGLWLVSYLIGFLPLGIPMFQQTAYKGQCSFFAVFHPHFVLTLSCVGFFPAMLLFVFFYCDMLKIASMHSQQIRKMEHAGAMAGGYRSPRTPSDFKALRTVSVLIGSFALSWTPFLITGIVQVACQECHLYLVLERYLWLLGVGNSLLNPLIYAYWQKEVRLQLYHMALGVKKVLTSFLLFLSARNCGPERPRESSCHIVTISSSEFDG
Method: Cyclic AMP Assay in Stable Cell Line:
Chinese Hamster Ovary (CHO-K1) cells were stably transfected with human GPR119 and were maintained in Ham's F-12 complete medium containing 10% heat inactivated FBS (Sigma, UK). The cells were maintained under a selection pressure with 500 μg/ml G418 (GENETICIN). Stable clones were analyzed for functional cAMP response to OEA (oleoylethanolamide).
To estimate activation of GPR119 and induction of cAMP levels by GPR119 agonists, cells were serum starvation for 18-24 h, trypsinized and seeded in 96 well plates at a, density of 7500 cells/well. The cells were then treated with test compounds diluted in serum free Ham's F12 for 1 h at 37° C. The cAMP levels were measured by using the cAMP femto kit (CisBio) by following the manufacturer's instructions. Following treatment with a test compound, the cells were lysed and cAMP levels were estimated by adding D2-labelled cAMP and europium-cryptate conjugated anti-cAMP antibody. Close proximity of D2 and cryptate results in FRET and the subsequent fluorescence that is measured at 665 and 620 nm. The FRET response is calculated as the ratio of fluorescence at 665 to fluorescence at 620 nm. The unlabelled cAMP produced as a result of GPR119 activation/agonism competes with the D2-cAMP leading to a decrease in the FRET signal. Thus the FRET signal is inversely proportional to the amount of cAMP produced by the treated cells. In a separate set of wells, known concentrations of cAMP were added in order to get a standard linear curve for extrapolation of the cAMP values in the unknown/test samples. Fluorescence was measured on BMG Labtech PHERAstar machine.
The concentration of compound required to stimulate a half-maximal response (EC50) was determined using the GraphPad Prism software.
The compounds prepared were tested using the above assay procedure and the results obtained are given below.

Q: How did the EC50 turn out when `CCc1cnc(N2CCC(Oc3ccc(-n4ccc5cc(C(=O)NC)ccc54)nc3)CC2)nc1` [Example-63, 1-(5-((1-(5-Ethylpyrimidin-2-yl)piperidin-4-yl)oxy)pyridin-2-yl)-N-methyl-1H-indole-5-carboxamide] was run?
A: < 50 nM

Q: `CCOC(=O)Nc1ccc2c(ccn2-c2ccc(OC3CCN(c4nc(C(C)C)no4)CC3)cn2)c1` [Example-141, Ethyl(1-(5-((1-(3-isopropyl-1,2,4-oxadiazol-5-yl)piperidin-4-yl)oxy)pyridin-2-yl)-1H-indol-5-yl)carbamate] was tested. Which EC50 did it give?
A: < 50 nM

Q: Which EC50 does the source give for `CCc1noc(N2CCC(Oc3ccc(-n4ccc5cc(NC(=O)OC(C)C)ccc54)nc3)CC2)n1` [Example-143, Isopropyl(1-(5-((1-(3-ethyl-1,2,4-oxadiazol-5-yl)piperidin-4-yl)oxy)pyridin-2-yl)-1H-indol-5-yl)carbamate] here?
A: < 50 nM

Q: `CCc1noc(N2CCC(Oc3ccc(-n4ccc5cc(C(=O)N(C)C)ccc54)nc3)CC2)n1` [Example-147, 1-(5-((1-(3-Ethyl-1,2,4-oxadiazol-5-yl)piperidin-4-yl)oxy)pyridin-2-yl)-N,N-dimethyl-1H-indole-5-carboxamide] was tested. Which EC50 did it give?
A: 50 to 250 nM

Q: With `CS(=O)(=O)c1ccc2c(ccn2-c2ccc(OC3CCN(Cc4ccc(C(F)(F)F)cc4)CC3)cn2)c1` [Example-153, 5-(Methylsulfonyl)-1-(5-((1-(4-(trifluoromethyl)benzyl)piperidin-4-yl)oxy)pyridin-2-yl)-1H-indole] as the molecule, how does the EC50 read?
A: 50 to 250 nM

Q: Which EC50 does the source give for `CCc1cnc(N2CCC(Oc3ccc(-n4ccc5cc(OC)cnc54)nc3)CC2)nc1` [Example-157, 1-(5-((1-(5-Ethylpyrimidin-2-yl)piperidin-4-yl)oxy)pyridin-2-yl)-5-methoxy-1H-pyrrolo[2,3-b]pyridine] here?
A: 50 to 250 nM

Q: For `CC(C)OC(=O)N1CCC(Oc2ccc(-n3ccc4cc(N5CCOC5=O)ccc43)nc2)CC1` [Example-166, Isopropyl 4-((6-(5-(2-oxooxazolidin-3-yl)-1H-indol-1-yl)pyridin-3-yl)oxy)piperidine-1-carboxylate], which EC50 is on record?
A: 250 to 1000 nM

Q: How did the EC50 turn out when `CCc1cnc(N2CCC(Oc3ccc(-n4cc(C)c5cc(S(C)(=O)=O)ccc54)nc3)CC2)nc1` [Example-168, 1-(5-((1-(5-Ethylpyrimidin-2-yl)piperidin-4-yl)oxy)pyridin-2-yl)-3-methyl-5-(methylsulfonyl)-1H-indole] was run?
A: < 50 nM

Q: With `CC(C)OC(=O)N1CCC(Oc2ccc(-n3ccc4cc(S(C)(=O)=O)ccc43)nc2)CC1` [Example-169, Isopropyl 4-((6-(5-(methylsulfonyl)-1H-indol-1-yl)pyridin-3-yl)oxy) piperidine-1-carboxylate] as the molecule, how does the EC50 read?
A: < 50 nM

Q: Which EC50 does the source give for `CCc1cnc(N2CCC(Oc3ccc(-n4ccc5cc(S(C)(=O)=O)cc(F)c54)nc3)CC2)nc1` [Example-171, 1-(5-((1-(5-Ethylpyrimidin-2-yl)piperidin-4-yl)oxy)pyridin-2-yl)-7-fluoro-5-(methylsulfonyl)-1H-indole] here?
A: < 50 nM

Q: For `CCOC(=O)N1CCC(Oc2ccc(-n3ccc4cc(N5CCCC5=O)ccc43)nc2)CC1` [Example-182, Ethyl 4-((6-(5-(2-oxopyrrolidin-1-yl)-1H-indol-1-yl)pyridin-3-yl)oxy) piperidine-1-carboxylate], which EC50 is on record?
A: 50 to 250 nM

Q: How did the EC50 turn out when `CCOC(=O)N1CCC(Oc2ccc(-n3ccc4cc(S(C)(=O)=O)ccc43)nc2)CC1` [Example-185, Ethyl-4-((6-(5-(methylsulfonyl)-1H-indol-1-yl)pyridin-3-yl)oxy)-piperidine-1-carboxylate] was run?
A: 50 to 250 nM

Q: With `CCOC(=O)N1CCC(Oc2ccc(-n3ccc4cc(-n5cnnn5)ccc43)nc2)CC1` [Example-187, Ethyl-4-((6-(5-(1H-tetrazol-1-yl)-1H-indol-1-yl)pyridin-3-yl)oxy)-piperidine-1-carboxylate] as the molecule, how does the EC50 read?
A: < 50 nM

Q: For `CCc1cnc(N2CCC(Oc3ccc(-n4ccc5cc(-n6cncn6)ccc54)nc3)CC2)nc1` [Example-190, 1-(5-((1-(5-Ethylpyrimidin-2-yl)piperidin-4-yl)oxy)pyridin-2-yl)-5-(1H-1,2,4-triazol-1-yl)-1H-indole], which EC50 is on record?
A: < 50 nM

Q: `CCOC(=O)N1CCC(Oc2ccc(-n3ccc4cc(-n5cncn5)ccc43)nc2)CC1` [Example-192, Ethyl-4-((6-(5-(1H-1,2,4-triazol-1-yl)-1H-indol-1-yl)pyridin-3-yl)oxy) piperidine-1-carboxylate] was tested. Which EC50 did it give?
A: 250 to 1000 nM

Q: How did the EC50 turn out when `CS(=O)(=O)c1ccc2c(ccn2-c2ccc(OC3CCN(CC4(C(F)(F)F)CC4)CC3)cn2)c1` [Example-193, 5-(Methylsulfonyl)-1-(5-((1-((1-(trifluoromethyl)cyclopropyl)methyl)-piperidin-4-yl)oxy)pyridin-2-yl)-1H-indole] was run?
A: < 50 nM
